tested on: mutant HTT protein (mHTT); assay: Homogeneous Time Resolved Fluorescence (HTRF) assay for HTT lowering in GENEAe020-A cells; assay type: cell-based; conditions: reduction of mHTT in Huntington patient human cells (GENEAe020-A cell line), 48 hours incubation, mean from three replicates
Description: Homogeneous Time Resolved Fluorescence for HTT Lowering
The HTRF assay was adapted from Weiss et al. (Analytical Biochemistry Volume 395, Issue 1, 1 Dec. 2009, Pages 8-15 and Analytical Biochemistry Volume 410, 2011, Pages 304-306) to cells from GENEAe020-A cell line (https://hpscreg.eu/cell-line/GENEAe020-A).
Compounds were tested for the effect of mutant HTT levels in Huntington patient human cells (GENEAe020-A cell line) using Homogeneous Time Resolved Fluorescence (HTRF) directed towards mutant HTT protein (mHTT). The GENEAe020-A cell line was derived by Genea Biocells from human blastocysts of HD donors. After assessing viability, cells were plated into 384 well collagen coated plates in growth media. Once cells adhered, media was removed and test compounds dissolved in DMSO were diluted with buffer solution and added to the adherent cells. Controls included experiments with no cells, DMSO with no compound, and Hsp90 inhibitor control. Cells were incubated with compounds and controls for 48 hours. Then, the cells were lysed and transferred to an assay plate containing HTRF labeled monoclonal antibodies developed by Paul Patterson (Ko et al., Brain Research Bulletin, Volume 56, Numbers 3 and 4, 2001, Pages 319-329) which recognize specific areas of the HTT protein. The terbium labeled “donor” antibody (2B7) binds to the N-terminus of the HTT protein and the Alexa488 labeled “acceptor” antibody (MW1) is specific for the polyglutamine region of the protein. Binding of the acceptor labeled antibody is more efficient for the extended polyglutamine repeats of mutant HTT protein which translates into a signal boost which enables the specific measurement of mutant HTT protein level. The HTRF donor and acceptor detection reagents were incubated with the cell lysate and the ratio between the signals of the two fluorophores is indicative of the relative quantities of mHTT.

Q: `Cc1cn2cc(-c3cc(=O)n4nc(C5CCNCC5)sc4n3)cc(F)c2n1` [Example 3, 7-(8-fluoro-2-methyl-imidazo[1,2-a]pyridin-6-yl)-2-(4-piperidyl)-[1,3,4]thiadiazolo[3,2-a]pyrimidin-5-one] was tested. Which EC50 did it give?
A: Its EC50 is 7.4 µM.

Q: How did the EC50 turn out when `Cc1cn2nc(-c3cc(=O)n4nc(C5CCNCC5)sc4n3)cc(C(F)(F)F)c2n1` [Example 9, 7-[2-methyl-8-(trifluoromethyl)imidazo[1,2-b]pyridazin-6-yl]-2-(4-piperidyl)-[1,3,4]thiadiazolo[3,2-a]pyrimidin-5-one] was run?
A: Its EC50 is 0.7 µM.

Q: For `Cc1cn2nc(-c3cc(=O)n4nc(C5(F)CCNCC5)sc4n3)cc(C)c2n1` [Example 8, 7-(2,8-dimethylimidazo[1,2-b]pyridazin-6-yl)-2-(4-fluoro-4-piperidyl)-[1,3,4]thiadiazolo[3,2-a]pyrimidin-5-one], which EC50 is on record?
A: The EC50 was 0.315 µM.

Q: Which EC50 does the source give for `Cc1cn2nc(-c3cc(=O)n4nc(C5CCNCC5)sc4n3)cc(C)c2n1` [Example 2, 7-(2,8-dimethylimidazo[1,2-b]pyridazin-6-yl)-2-(4-piperidyl)-[1,3,4]thiadiazolo[3,2-a]pyrimidin-5-one] here?
A: The EC50 was 0.196 µM.

Q: `Cc1cn2nc(-c3cc(=O)n4nc(N5CCNC6(CC6)C5)sc4n3)cc(C)c2n1` [Example 6, 2-(4,7-diazaspiro[2.5]octan-7-yl)-7-(2,8-dimethylimidazo[1,2-b]pyridazin-6-yl)-[1,3,4]thiadiazolo[3,2-a]pyrimidin-5-one] was tested. Which EC50 did it give?
A: The EC50 was 5.84 µM.

Q: How did the EC50 turn out when `Cc1cn2nc(-c3cc(=O)n4nc(C5CCNC6(CC6)C5)sc4n3)cc(C)c2n1` (stereo not drawn) [Example 7, 2-(4-azaspiro[2.5]octan-7-yl)-7-(2,8-dimethylimidazo[1,2-b]pyridazin-6-yl)-[1,3,4]thiadiazolo[3,2-a]pyrimidin-5-one] was run?
A: The EC50 was 0.302 µM.

Q: With `Cc1cn2nc(-c3cc(=O)n4nc(C5CCNC5)sc4n3)cc(C)c2n1` (stereo not drawn) [Example 10, 7-(2,8-dimethylimidazo[1,2-b]pyridazin-6-yl)-2-pyrrolidin-3-yl-[1,3,4]thiadiazolo[3,2-a]pyrimidin-5-one] as the molecule, how does the EC50 read?
A: The EC50 was 5.22 µM.

Q: How did the EC50 turn out when `Cc1cn2nc(-c3cc(=O)n4nc(N5CCNCC5)sc4n3)cc(C)c2n1` [Example 1, 7-(2,8-dimethylimidazo[1,2-b]pyridazin-6-yl)-2-piperazino-[1,3,4]thiadiazolo[3,2-a]pyrimidin-5-one] was run?
A: Its EC50 is 0.821 µM.

Q: Which EC50 does the source give for `Cc1cn2nc(-c3cc(=O)n4nc(N5C[C@@H](C)N[C@@H](C)C5)sc4n3)cc(C)c2n1` [Example 4, 7-(2,8-dimethylimidazo[1,2-b]pyridazin-6-yl)-2-[(3R,5S)-3,5-dimethylpiperazin-1-yl]-[1,3,4]thiadiazolo[3,2-a]pyrimidin-5-one] here?
A: The EC50 was 2.04 µM.

Reference: patent US20240010659A1, “NEW THIADIAZOLOPYRIMIDONE DERIVATIVES” (Hoffmann-La Roche Inc., priority 2021, published 2024)
